Article PMC4026281 (Journal of neurochemistry, 2012)
Entries after “also recorded” stand apart in the source; their conditions may differ.

How the values were obtained:
[1] = system: α6β2* and α3β2* nAChR; conditions: cited from earlier work
[2] = system: α6* nAChRs, crude rat striatal synaptosomes; conditions: cited from earlier work
[3] = system: nAChRs on SuSC GABAergic terminals (crude synaptosomes); assay type: biochemical, mouse
[4] = system: α6β2*-nAChR, crude striatal synaptosomes; assay type: biochemical, mouse

Substance: α-conotoxin PIA [α-CtxPIA]
- subtypes inhibited by the α-conotoxin [1]: selective inhibitor of α6β2*-nAChR
- reversibility of inhibition of DA release [2]: slowly reversible
- IC50 ([2]; read-out: IC50, inhibition of DA release stimulated by nicotine or ACh): 1.48 nM
- effect on ACh-evoked [^3H]-GABA release (abstract) [3]: did not affect [^3H]-GABA release
- inhibition of ACh-stimulated [^3H]-GABA release by 100nM α-CtxPIA [3]: completely unable to inhibit
- inhibition of ACh-stimulated [^3H]-GABA release by α-CtxPIA [3]: could not be reliably fit to an inhibition model; also recorded: no significant inhibition
- inhibition of ACh-stimulated [^3H]-dopamine release [4]: 24.2 ± 3.3%
